From publication PMC9814635 (Communications Chemistry, 2022)

How the values were obtained:
FGFR1 = conditions: printed as potency 'toward FGFRs' in the FGFR1 comparison; cited from earlier work
[1] = system: FGFR4-translocated Ba/F3 cells; assay: cells; conditions: Mus musculus, BaF3, 72 h, read-out: IC50 proliferation, FGFR4 Ba/F3 cells
Protocol: (§1) Cell proliferation and viability were evaluated in parental Ba/F3 cells and TEL-FGFR1-4/FGFR mutation-translocated Ba/F3 cell lines.

parental Ba/F3 cells = assay: cells; conditions: Mus musculus, BaF3, 72 h, read-out: IC50 proliferation, parental Ba/F3 cells
Protocol: as §1

[2] = Phase II FIGHT-202, patients; cited from earlier work

| SMILES | IC50 (FGFR1) [nM] | IC50 [1] [nM] | IC50 (parental Ba/F3 cells) [nM] | complete responses [2] [%] | disease control rate [2] [%] | objective response rate [2] [%] |
| --- | --- | --- | --- | --- | --- | --- |
| CCN1C(=O)N(c2c(F)c(OC)cc(OC)c2F)Cc2cnc3[nH]c(CN4CCOCC4)cc3c21 [pemigatinib] |  | 12 | > 5000 | 2.8 | 82.0 | 35.5 |
